Where a SMILES comes first, the peptide text is derived from it.
Experiments:
[1] = tested on: procollagen type I peptide production; assay: Procollagen Type I Peptide (PIP) production in NHDF cells (EIA); format: cell-based, Human
Experimental: Normal Human Dermal Fibroblasts (NHDF) were obtained from Lonza (Lonza Walkersville, Inc.) and cultured in FBM (Fibroblast Basal Medium) supplemented with 0.1% hFGF-B, insulin, GA-1000, and 2% FBS at 37 °C in a 5% CO2 incubator. Subculture was performed every 2 to 3 days.
NHDF cells were seeded at 2.0×10^4 cells/well in a 24-well plate and incubated for 24 hours at 37 °C in a 5% CO2 incubator. After incubation, the culture medium was replaced with serum-free FBM, and the peptide prepared in the above Example was applied at concentrations of 1-100 μM, followed by incubation for 24 hours. The supernatant from each experimental group was collected, and the amount of procollagen released into the medium was measured. The positive control group was treated with ascorbic acid at a concentration of 0.001 v/v %. Measurement of procollagen levels was performed using a Procollagen Type I Peptide (PIP) EIA Kit (Takara Biomedical Co.) according to the manufacturer's protocol. The quantitative results of procollagen type I peptide production following treatment with the peptide of the Example are shown in Table 3 and FIG. 4.

[2] = Cytotoxicity Evaluation in Macrophages (EZ-Cytox Assay); format: cell-based; conditions: mouse, positive control, LPS 1 μg/ml, RAW264.7 cells, control = 100, read-out: Cell viability (%)
Experimental: (§1) RAW264.7 macrophage cells were obtained from the American Type Culture Collection (ATCC) and cultured in Dulbecco's Modified Eagle's Medium (DMEM) containing 100 units/mL penicillin-streptomycin and 10% (v/v) fetal bovine serum (FBS) at 37 °C in a 5% CO2 incubator, and subculture was performed every 2 to 3 days.
The EZ-cytox assay is a representative method for measuring cell viability using the principle that water-soluble tetrazolium salts (WSTs) react with dehydrogenases of viable cells to produce a water-soluble orange formazan.
To evaluate cytotoxicity, RAW264.7 cells were seeded at 1.5×10^4 cells/well in a 96-well plate using DMEM supplemented with 10% FBS and incubated for 18 hours at 37 °C in a 5% CO2 incubator. The test samples were then applied to the cultured cells. After treatment, EZ-cytox was added to each well and incubated for 30 minutes under the same conditions. Absorbance was measured at 450 nm using a microplate reader. The mean absorbance values of each sample group were compared with the control group to determine cell viability.

[3] = tested on: nitric oxide (NO) production; assay: Inhibition of Nitric Oxide (NO) Production (griess reagent) in LPS-stimulated RAW264.7 cells; format: cell-based; conditions: 24 hours; for NO Production (%): LPS 1 μg/ml, relative to LPS control = 100
Experimental: as §1
RAW264.7 cells were seeded at 1.5×10^5 cells/well in a 24-well plate and incubated for 18 hours at 37 °C in a 5% CO2 incubator. The cells were then treated with the peptide prepared in the above Example at concentrations of 50-200 μM and incubated for 24 hours.
From each experimental group, 100 μL of the supernatant was collected into a 96-well plate, and 100 μL of griess reagent was added. The mixture was allowed to react at room temperature for 10 minutes, and absorbance was measured at 540 nm using a microplate reader. The positive control group was treated with 2 µM of 2-amino-4-methylpyridine (2-AM). The relative levels of NO production following the treatments described in the above Example, based on NO production induced by the stimulant (LPS), are shown in Table 1 and FIG. 2 below.

[4] = tested on: hyaluronic acid production; assay: Hyaluronic acid (HA) production in HaCaT cells (ELISA); format: cell-based, human
Experimental: The HaCaT human keratinocyte cell line was obtained from Cell Line Service GmbH (Germany). The cells were cultured in DMEM containing 1% penicillin-streptomycin and 10% fetal bovine serum (FBS) at 37 °C in a 5% CO2 incubator, and subculture was performed every 2 to 3 days.
HaCaT cells were seeded at 1.0×10^5 cells/well in a 24-well plate and incubated for 24 hours at 37 °C in a 5% CO2 incubator. After incubation, the culture medium was replaced with serum-free DMEM, and the peptide prepared in the above Example was applied at concentrations of 50-200 μM, followed by incubation for 24 hours.
The supernatant from each experimental group was collected, and the amount of hyaluronic acid (HA) released into the medium was measured. The positive control group was treated with N-acetylglucosamine at a concentration of 10 mM. Measurement of hyaluronic acid production was conducted using a Hyaluronic Acid ELISA Kit (Cusabio Biotechnology Co., Ltd.) following the manufacturer's protocol.

[5] = 50 μM, 24 hours, untreated group = 100
[6] = 100 μM, 24 hours, untreated group = 100

O=C1O[C@H]([C@@H](O)CO)C(O)=C1O [Asc. A, ascorbic acid, reference compound]
activity at 10 µg/mL ([1]; Homo sapiens, 24 h, 10 μg/mL, positive control, untreated group = 100): 176 ± 3.91%

Cc1ccnc(N)c1 [Example 2-AM, 2-amino-4-methylpyridine, reference compound]
viability at 10 µM [2]: 94.1 ± 1.76%

N[C@@H](Cc1ccc(O)cc1)C(=O)NCC(=O)N[C@@H](CO)C(=O)N[C@@H](CC(=O)O)C(=O)O [Example, Tyr-Gly-Ser-Asp] (H-YGSD-OH)
NO Production (%) ([3]; 50 μM): 101.55 ± 2.59%
NO Production (%) ([3]; 100 μM): 91.42 ± 4.58%
NO Production (%) ([3]; 200 μM): 86.51 ± 2.39%
NO production, result in words ([3]; 50-200 μM, LPS): inhibit NO production in a concentration-dependent manner
Hyaluronic acid production (%) [4, 5]: 105.1 ± 5.45%
Hyaluronic acid production (%) [4, 6]: 123.64 ± 0.81%
Hyaluronic acid production (%) ([4]; 200 μM, 24 hours, untreated group = 100): 132.68 ± 22.43%
hyaluronic acid production, result in words ([4]; 50-200 μM, 24 hours): increase in hyaluronic acid production
Procollagen production (%) ([1]; 1 μM, 24 hours, untreated group = 100): 103.47 ± 6.38%
Procollagen production (%) ([1]; 10 μM, 24 hours, untreated group = 100): 110.79 ± 5.44%
Procollagen production (%) [1, 5]: 121.67 ± 3.57%
Procollagen production (%) [1, 6]: 132.38 ± 1.24%
procollagen production, result in words ([1]; 1-100 μM, 24 hours): increase in procollagen production

CC(=O)N[C@H]1C(O)O[C@H](CO)[C@@H](O)[C@@H]1O (stereo partly shown) [NAG, N-acetylglucosamine, reference compound]
activity at 10000 µM ([4]; Homo sapiens, 24 h, 10 mM, positive control, untreated group = 100): 121 ± 10.4%

From patent US20260365695A1, “NOVEL PEPTIDE EXHIBITING SKIN CONDITION IMPROVEMENT ACTIVITY AND COSMETIC COMPOSITION CONTAINING SAME” (DAEBONG LS CO., LTD., priority 2023, published 2026)
